Assay in all cases: cell-based
One experiment concerns the target hNav1.5 (Homo sapiens, UniProt Q14524).
Another experiment deals with hNav1.7 (Homo sapiens, UniProt Q15858). The note with it: Nav1.7 Use IC50.
In another experiment the target is hNav1.3 (Homo sapiens, UniProt Q9NY46). It is filed as cell-based. Conditions: Nav1.3 Use IC50.

Positions of bridges follow the written chain, without caps; N, C: chain ends. Non-standard residues stand in square brackets, D forms with d. Residues, ends and D or L forms follow the SMILES beside them. Trp(1-Me) = Cn1cc(C[C@H](N)C(=O)O)c2ccccc21; 1Nal = N[C@@H](Cc1cccc2ccccc12)C(=O)O

The term IC50 denotes the point on the concentration scale where inhibition reaches its midpoint. Read a high IC50 as weaker potency.

hNav1.5, sequence (Q14524 whole entry, looked up): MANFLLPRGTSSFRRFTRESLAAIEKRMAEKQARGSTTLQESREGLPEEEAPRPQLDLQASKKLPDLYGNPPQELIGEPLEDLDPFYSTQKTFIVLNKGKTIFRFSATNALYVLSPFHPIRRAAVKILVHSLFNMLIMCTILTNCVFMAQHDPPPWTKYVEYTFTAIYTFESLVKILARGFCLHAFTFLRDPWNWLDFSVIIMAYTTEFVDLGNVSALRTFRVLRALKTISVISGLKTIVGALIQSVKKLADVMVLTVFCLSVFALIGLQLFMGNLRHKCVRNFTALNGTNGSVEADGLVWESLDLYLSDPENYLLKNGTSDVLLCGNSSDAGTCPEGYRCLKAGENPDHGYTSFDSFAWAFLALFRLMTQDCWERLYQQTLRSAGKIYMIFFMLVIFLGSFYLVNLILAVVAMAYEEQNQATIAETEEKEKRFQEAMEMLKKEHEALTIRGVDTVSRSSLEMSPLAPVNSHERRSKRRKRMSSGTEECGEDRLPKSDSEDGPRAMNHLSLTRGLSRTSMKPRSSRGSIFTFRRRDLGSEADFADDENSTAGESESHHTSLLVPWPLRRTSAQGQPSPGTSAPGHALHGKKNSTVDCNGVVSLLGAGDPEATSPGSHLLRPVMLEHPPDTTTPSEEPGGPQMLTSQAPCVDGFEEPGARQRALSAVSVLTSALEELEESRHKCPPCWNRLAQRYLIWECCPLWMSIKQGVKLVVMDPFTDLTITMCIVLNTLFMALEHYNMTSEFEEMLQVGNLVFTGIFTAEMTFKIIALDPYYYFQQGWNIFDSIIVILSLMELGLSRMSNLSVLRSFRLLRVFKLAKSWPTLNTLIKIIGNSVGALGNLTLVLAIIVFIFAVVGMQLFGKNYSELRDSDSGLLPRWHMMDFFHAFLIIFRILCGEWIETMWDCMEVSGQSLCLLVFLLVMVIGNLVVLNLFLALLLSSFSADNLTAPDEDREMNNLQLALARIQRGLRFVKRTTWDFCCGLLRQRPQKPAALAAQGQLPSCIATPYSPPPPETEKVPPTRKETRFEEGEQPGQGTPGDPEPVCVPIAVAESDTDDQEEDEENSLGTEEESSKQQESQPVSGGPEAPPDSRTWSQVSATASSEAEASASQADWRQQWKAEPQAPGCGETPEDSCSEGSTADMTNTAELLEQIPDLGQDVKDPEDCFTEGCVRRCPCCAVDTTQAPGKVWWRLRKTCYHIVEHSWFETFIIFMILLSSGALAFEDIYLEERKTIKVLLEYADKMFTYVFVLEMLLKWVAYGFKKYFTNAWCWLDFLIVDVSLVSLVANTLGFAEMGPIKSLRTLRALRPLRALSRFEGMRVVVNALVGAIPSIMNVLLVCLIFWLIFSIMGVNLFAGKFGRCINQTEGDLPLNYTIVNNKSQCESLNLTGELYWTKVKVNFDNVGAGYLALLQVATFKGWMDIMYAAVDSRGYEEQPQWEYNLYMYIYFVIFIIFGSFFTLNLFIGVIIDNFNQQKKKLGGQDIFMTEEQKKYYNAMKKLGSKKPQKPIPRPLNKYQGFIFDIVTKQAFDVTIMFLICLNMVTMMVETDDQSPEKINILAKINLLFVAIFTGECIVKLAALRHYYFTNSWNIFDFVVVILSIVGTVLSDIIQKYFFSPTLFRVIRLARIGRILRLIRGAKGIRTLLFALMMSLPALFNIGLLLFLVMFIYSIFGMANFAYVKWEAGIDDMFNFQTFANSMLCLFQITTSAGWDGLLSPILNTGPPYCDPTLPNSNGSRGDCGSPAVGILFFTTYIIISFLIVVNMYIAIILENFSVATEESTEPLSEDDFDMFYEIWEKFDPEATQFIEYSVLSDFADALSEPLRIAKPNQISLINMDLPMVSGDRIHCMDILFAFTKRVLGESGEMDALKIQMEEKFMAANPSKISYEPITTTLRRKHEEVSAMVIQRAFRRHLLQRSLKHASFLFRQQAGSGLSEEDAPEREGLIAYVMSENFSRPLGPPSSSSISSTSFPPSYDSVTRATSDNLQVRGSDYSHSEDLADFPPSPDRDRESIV
hNav1.3, sequence (Q9NY46 whole entry, looked up): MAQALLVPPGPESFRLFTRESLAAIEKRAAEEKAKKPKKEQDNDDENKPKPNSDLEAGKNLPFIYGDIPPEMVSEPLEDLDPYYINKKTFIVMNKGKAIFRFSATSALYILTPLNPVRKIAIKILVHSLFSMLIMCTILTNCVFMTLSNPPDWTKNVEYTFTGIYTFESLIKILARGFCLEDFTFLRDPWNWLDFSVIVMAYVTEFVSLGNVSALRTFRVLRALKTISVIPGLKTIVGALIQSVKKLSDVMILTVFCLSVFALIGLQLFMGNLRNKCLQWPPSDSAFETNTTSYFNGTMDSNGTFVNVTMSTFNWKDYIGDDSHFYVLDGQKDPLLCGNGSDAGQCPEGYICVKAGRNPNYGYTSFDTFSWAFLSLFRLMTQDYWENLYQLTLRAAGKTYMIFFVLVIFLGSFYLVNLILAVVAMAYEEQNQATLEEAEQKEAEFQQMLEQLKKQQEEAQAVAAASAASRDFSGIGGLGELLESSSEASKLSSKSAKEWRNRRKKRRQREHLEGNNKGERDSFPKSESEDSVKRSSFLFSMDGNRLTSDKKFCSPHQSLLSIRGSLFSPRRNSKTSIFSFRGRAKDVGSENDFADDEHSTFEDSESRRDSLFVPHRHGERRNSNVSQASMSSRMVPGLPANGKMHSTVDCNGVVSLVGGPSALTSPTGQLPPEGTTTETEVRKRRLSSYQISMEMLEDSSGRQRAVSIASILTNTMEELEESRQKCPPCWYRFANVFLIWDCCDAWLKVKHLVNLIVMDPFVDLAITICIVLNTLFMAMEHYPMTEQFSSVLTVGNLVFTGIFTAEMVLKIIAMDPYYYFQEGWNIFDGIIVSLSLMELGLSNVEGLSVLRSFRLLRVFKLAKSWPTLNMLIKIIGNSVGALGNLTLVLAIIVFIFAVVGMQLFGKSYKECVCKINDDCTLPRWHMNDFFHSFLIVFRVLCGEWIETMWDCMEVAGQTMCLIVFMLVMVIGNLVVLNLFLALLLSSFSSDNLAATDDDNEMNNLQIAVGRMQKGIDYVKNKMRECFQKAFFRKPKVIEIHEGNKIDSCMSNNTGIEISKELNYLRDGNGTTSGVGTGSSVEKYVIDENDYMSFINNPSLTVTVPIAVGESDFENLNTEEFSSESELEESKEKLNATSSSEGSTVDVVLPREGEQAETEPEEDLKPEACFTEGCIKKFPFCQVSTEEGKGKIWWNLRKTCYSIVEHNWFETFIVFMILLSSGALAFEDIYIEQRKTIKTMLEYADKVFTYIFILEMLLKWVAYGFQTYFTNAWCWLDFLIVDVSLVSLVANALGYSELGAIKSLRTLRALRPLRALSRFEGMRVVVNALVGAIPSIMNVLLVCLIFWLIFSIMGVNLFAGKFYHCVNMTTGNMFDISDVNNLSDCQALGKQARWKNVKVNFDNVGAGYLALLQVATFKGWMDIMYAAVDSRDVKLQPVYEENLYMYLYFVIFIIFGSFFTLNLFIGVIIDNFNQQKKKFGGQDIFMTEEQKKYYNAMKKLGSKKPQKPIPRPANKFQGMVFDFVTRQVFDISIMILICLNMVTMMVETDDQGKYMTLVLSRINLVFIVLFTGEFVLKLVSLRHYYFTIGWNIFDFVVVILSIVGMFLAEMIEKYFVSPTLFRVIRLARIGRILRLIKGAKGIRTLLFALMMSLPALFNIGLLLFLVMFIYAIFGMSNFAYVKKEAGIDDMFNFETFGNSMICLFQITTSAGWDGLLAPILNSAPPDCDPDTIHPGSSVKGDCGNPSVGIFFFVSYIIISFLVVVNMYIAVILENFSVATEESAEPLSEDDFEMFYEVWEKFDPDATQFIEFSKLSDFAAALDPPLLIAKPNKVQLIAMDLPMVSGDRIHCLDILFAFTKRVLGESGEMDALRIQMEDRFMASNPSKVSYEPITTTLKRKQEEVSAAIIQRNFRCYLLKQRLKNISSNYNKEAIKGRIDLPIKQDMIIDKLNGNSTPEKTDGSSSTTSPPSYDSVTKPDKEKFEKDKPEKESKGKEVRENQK

With `CC[C@H](C)[C@@H]1NC(=O)[C@@H]2CSSC[C@@H]3NC(=O)[C@H](C(C)C)NC(=O)[C@H](CC(C)C)NC(=O)[C@H](CC(N)=O)NC(=O)[C@@H]4CCCN4C(=O)[C@H](CCCNC(=N)N)NC(=O)[C@H](CSSC[C@H](NC(=O)[C@@H](N)CC(=O)O)C(=O)N[C@@H](CC(C)C)C(=O)NCC(=O)N[C@@H](Cc4ccccc4)C(=O)N[C@@H](CCSC)C(=O)N[C@@H](CCCNC(=N)N)C(=O)N[C@@H](CCCCN)C(=O)N2)NC(=O)[C@H](CSSC[C@@H](C(=O)N[C@@H](CCCCN)C(=O)N[C@@H](Cc2ccc(O)cc2)C(=O)N[C@H](C(=O)N[C@@H](Cc2ccccc2)C(=O)N[C@@H](Cc2c[nH]c4ccccc24)C(N)=O)C(C)C)NC(=O)[C@H](Cc2c[nH]c4ccccc24)NC(=O)[C@H](CCCCN)NC(=O)[C@H](Cc2c[nH]cn2)NC(=O)[C@H]([C@@H](C)O)NC(=O)[C@H](CCCNC(=N)N)NC(=O)[C@H](CO)NC3=O)NC(=O)[C@H](CCCCN)NC(=O)[C@H](CC(=O)O)NC(=O)[C@H](CC(N)=O)NC(=O)[C@H](CC(=O)O)NC(=O)[C@@H]2CCCN2C1=O` [GpTx-1(1-34)-Trp], the results for the IC50 at hNav1.5, at hNav1.7 and against hNav1.3 were 2.66 µM, 9 nM and 15 nM, respectively.
For `CC[C@H](C)[C@@H]1NC(=O)[C@@H]2CSSC[C@@H]3NC(=O)[C@H](C(C)C)NC(=O)[C@H](CC(C)C)NC(=O)[C@H](CC(N)=O)NC(=O)[C@@H]4CCCN4C(=O)[C@H](CCCNC(=N)N)NC(=O)[C@H](CSSC[C@H](NC(=O)[C@@H](N)CC(=O)O)C(=O)N[C@@H](CC(C)C)C(=O)NCC(=O)N[C@@H](Cc4ccccc4)C(=O)N[C@@H](CCSC)C(=O)N[C@@H](CCCNC(=N)N)C(=O)N[C@@H](CCCCN)C(=O)N2)NC(=O)[C@H](CSSC[C@@H](C(=O)N[C@@H](CCCCN)C(=O)N[C@@H](Cc2ccc(O)cc2)C(=O)N[C@H](C(=O)N[C@@H](Cc2cccc4ccccc24)C(N)=O)C(C)C)NC(=O)[C@H](Cc2c[nH]c4ccccc24)NC(=O)[C@H](CCCCN)NC(=O)[C@H](Cc2cnc[nH]2)NC(=O)[C@H]([C@@H](C)O)NC(=O)[C@H](CCCNC(=N)N)NC(=O)[C@H](CO)NC3=O)NC(=O)[C@H](CCCCN)NC(=O)[C@H](CC(=O)O)NC(=O)[C@H](CC(N)=O)NC(=O)[C@H](CC(=O)O)NC(=O)[C@@H]2CCCN2C1=O` [[1-Nal34]GpTx-1(1-34)] (H-DCLGFMRKCIPDNDKCCRPNLVCSRTHKWCKYV[1Nal]-NH2; disulfide 2-17, 9-23, 16-30), the IC50 at hNav1.5 is 1.86 µM; against hNav1.7, 4 nM; at hNav1.3 it was 7 nM.
Consider `CC[C@H](C)[C@@H]1NC(=O)[C@@H]2CSSC[C@@H]3NC(=O)[C@H](C(C)C)NC(=O)[C@H](CC(C)C)NC(=O)[C@H](CC(N)=O)NC(=O)[C@@H]4CCCN4C(=O)[C@H](CCCNC(=N)N)NC(=O)[C@H](CSSC[C@H](NC(=O)[C@@H](N)CC(=O)O)C(=O)N[C@@H](CC(C)C)C(=O)NCC(=O)N[C@@H](Cc4ccccc4)C(=O)N[C@@H](CCSC)C(=O)N[C@@H](CCCNC(=N)N)C(=O)N[C@@H](CCCCN)C(=O)N2)NC(=O)[C@H](CSSC[C@@H](C(=O)N[C@@H](CCCCN)C(=O)N[C@@H](Cc2cn(C)c4ccccc24)C(=O)N[C@H](C(=O)N[C@@H](Cc2ccccc2)C(N)=O)C(C)C)NC(=O)[C@H](Cc2c[nH]c4ccccc24)NC(=O)[C@H](CCCCN)NC(=O)[C@H](Cc2c[nH]cn2)NC(=O)[C@H]([C@@H](C)O)NC(=O)[C@H](CCCNC(=N)N)NC(=O)[C@H](CO)NC3=O)NC(=O)[C@H](CCCCN)NC(=O)[C@H](CC(=O)O)NC(=O)[C@H](CC(N)=O)NC(=O)[C@H](CC(=O)O)NC(=O)[C@@H]2CCCN2C1=O` [[1′NMeW32]GpTx-1(1-34)] (H-DCLGFMRKCIPDNDKCCRPNLVCSRTHKWCK[Trp(1-Me)]VF-NH2; disulfide 2-17, 9-23, 16-30), for which the IC50 against hNav1.5 turned out to be 6.85 µM; against hNav1.7, 6 nM; at hNav1.3, 18 nM.
Consider `CC[C@H](C)[C@@H]1NC(=O)[C@@H]2CSSC[C@@H]3NC(=O)[C@H](C(C)C)NC(=O)[C@H](CC(C)C)NC(=O)[C@H](CC(N)=O)NC(=O)[C@@H]4CCCN4C(=O)[C@H](CCCNC(=N)N)NC(=O)[C@H](CSSC[C@H](NC(=O)[C@@H](N)CC(=O)O)C(=O)N[C@@H](CC(C)C)C(=O)NCC(=O)N[C@@H](Cc4ccccc4)C(=O)N[C@@H](CCSC)C(=O)N[C@@H](CCCNC(=N)N)C(=O)N[C@@H](CCCCN)C(=O)N2)NC(=O)[C@H](CSSC[C@@H](C(=O)N[C@@H](CCCCN)C(=O)N[C@@H](Cc2ccc(O)cc2)C(=O)N[C@@H](Cc2cn(C)c4ccccc24)C(=O)N[C@@H](Cc2ccccc2)C(N)=O)NC(=O)[C@H](Cc2c[nH]c4ccccc24)NC(=O)[C@H](CCCCN)NC(=O)[C@H](Cc2c[nH]cn2)NC(=O)[C@H]([C@@H](C)O)NC(=O)[C@H](CCCNC(=N)N)NC(=O)[C@H](CO)NC3=O)NC(=O)[C@H](CCCCN)NC(=O)[C@H](CC(=O)O)NC(=O)[C@H](CC(N)=O)NC(=O)[C@H](CC(=O)O)NC(=O)[C@@H]2CCCN2C1=O` [[1′NMeW33]GpTx-1(1-34)] (H-DCLGFMRKCIPDNDKCCRPNLVCSRTHKWCKY[Trp(1-Me)]F-NH2; disulfide 2-17, 9-23, 16-30), for which the IC50 was determined as 9.54 µM against hNav1.5, 54 nM against hNav1.7 and 37 nM against hNav1.3.
For the compound `CC[C@H](C)[C@@H]1NC(=O)[C@@H]2CSSC[C@@H]3NC(=O)[C@H](C(C)C)NC(=O)[C@H](CC(C)C)NC(=O)[C@H](CC(N)=O)NC(=O)[C@@H]4CCCN4C(=O)[C@H](CCCNC(=N)N)NC(=O)[C@H](CSSC[C@H](NC(=O)[C@@H](N)CC(=O)O)C(=O)N[C@@H](CC(C)C)C(=O)NCC(=O)N[C@@H](C)C(=O)N[C@@H](Cc4cccc5ccccc45)C(=O)N[C@@H](CCCNC(=N)N)C(=O)N[C@@H](CCCCN)C(=O)N2)NC(=O)[C@H](CSSC[C@@H](C(=O)N[C@@H](CCCCN)C(=O)N[C@@H](Cc2ccc(O)cc2)C(=O)N[C@H](C(=O)N[C@@H](Cc2ccccc2)C(N)=O)C(C)C)NC(=O)[C@H](Cc2c[nH]c4ccccc24)NC(=O)[C@H](CCCCN)NC(=O)[C@H](Cc2cnc[nH]2)NC(=O)[C@H]([C@@H](C)O)NC(=O)[C@H](CCCNC(=N)N)NC(=O)[C@H](CO)NC3=O)NC(=O)[C@H](CCCCN)NC(=O)[C@H](CC(=O)O)NC(=O)[C@H](CC(N)=O)NC(=O)[C@H](CC(=O)O)NC(=O)[C@@H]2CCCN2C1=O` [[Ala5;1-Nal6]GpTx-1(1-34)], the figures for the IC50 on hNav1.5, against hNav1.7 and at hNav1.3 were 3.81 µM, 2 nM and 8 nM, respectively.
For the compound `CC[C@H](C)[C@@H]1NC(=O)[C@@H]2CSSC[C@@H]3NC(=O)[C@H](C(C)C)NC(=O)[C@H](CC(C)C)NC(=O)[C@H](CC(N)=O)NC(=O)[C@@H]4CCCN4C(=O)[C@H](CCCNC(=N)N)NC(=O)[C@H](CSSC[C@H](NC(=O)[C@@H](N)CC(=O)O)C(=O)N[C@@H](CC(C)C)C(=O)NCC(=O)N[C@@H](C)C(=O)N[C@@H](CCSC)C(=O)N[C@@H](CCCNC(=N)N)C(=O)N[C@@H](CCCCN)C(=O)N2)NC(=O)[C@H](CSSC[C@@H](C(=O)N[C@@H](CCCCN)C(=O)N[C@@H](Cc2cccc4ccccc24)C(=O)N[C@H](C(=O)N[C@@H](Cc2ccccc2)C(N)=O)C(C)C)NC(=O)[C@H](Cc2c[nH]c4ccccc24)NC(=O)[C@H](CCCCN)NC(=O)[C@H](Cc2c[nH]cn2)NC(=O)[C@H]([C@@H](C)O)NC(=O)[C@H](CCCNC(=N)N)NC(=O)[C@H](CO)NC3=O)NC(=O)[C@H](CCCCN)NC(=O)[C@H](CC(=O)O)NC(=O)[C@H](CC(N)=O)NC(=O)[C@H](CC(=O)O)NC(=O)[C@@H]2CCCN2C1=O` [[Ala5;1-Nal32]GpTx-1(1-34)] (H-DCLGAMRKCIPDNDKCCRPNLVCSRTHKWCK[1Nal]VF-NH2; disulfide 2-17, 9-23, 16-30), the IC50 against hNav1.5 was greater than 10 µM; against hNav1.7, 28 nM; against hNav1.3, 122 nM.
In the case of `CC[C@H](C)[C@@H]1NC(=O)[C@@H]2CSSC[C@@H]3NC(=O)[C@H](C(C)C)NC(=O)[C@H](CC(C)C)NC(=O)[C@H](CC(N)=O)NC(=O)[C@@H]4CCCN4C(=O)[C@H](CCCNC(=N)N)NC(=O)[C@H](CSSC[C@H](NC(=O)[C@@H](N)CC(=O)O)C(=O)N[C@@H](CC(C)C)C(=O)NCC(=O)N[C@@H](C)C(=O)N[C@@H](CCSC)C(=O)N[C@@H](CCCNC(=N)N)C(=O)N[C@@H](CCCCN)C(=O)N2)NC(=O)[C@H](CSSC[C@@H](C(=O)N[C@@H](CCCCN)C(=O)N[C@@H](Cc2ccc(O)cc2)C(=O)N[C@@H](Cc2cccc4ccccc24)C(=O)N[C@@H](Cc2ccccc2)C(N)=O)NC(=O)[C@H](Cc2c[nH]c4ccccc24)NC(=O)[C@H](CCCCN)NC(=O)[C@H](Cc2c[nH]cn2)NC(=O)[C@H]([C@@H](C)O)NC(=O)[C@H](CCCNC(=N)N)NC(=O)[C@H](CO)NC3=O)NC(=O)[C@H](CCCCN)NC(=O)[C@H](CC(=O)O)NC(=O)[C@H](CC(N)=O)NC(=O)[C@H](CC(=O)O)NC(=O)[C@@H]2CCCN2C1=O` [[Ala5;1-Nal33]GpTx-1(1-34)] (H-DCLGAMRKCIPDNDKCCRPNLVCSRTHKWCKY[1Nal]F-NH2; disulfide 2-17, 9-23, 16-30), the 50% inhibitory concentration (IC50) was greater than 10 µM on hNav1.5, 48 nM against hNav1.7 and 201 nM on hNav1.3.
For the compound `CC[C@H](C)[C@@H]1NC(=O)[C@@H]2CSSC[C@@H]3NC(=O)[C@H](C(C)C)NC(=O)[C@H](CC(C)C)NC(=O)[C@H](CC(N)=O)NC(=O)[C@@H]4CCCN4C(=O)[C@H](CCCNC(=N)N)NC(=O)[C@H](CSSC[C@H](NC(=O)[C@@H](N)CC(=O)O)C(=O)N[C@@H](CC(C)C)C(=O)NCC(=O)N[C@@H](Cc4ccccc4)C(=O)N[C@@H](CCSC)C(=O)N[C@@H](CCCNC(=N)N)C(=O)N[C@@H](CCCCN)C(=O)N2)NC(=O)[C@H](CSSC[C@@H](C(=O)N[C@@H](CCCCN)C(=O)N[C@@H](Cc2ccc(O)cc2)C(=O)N[C@H](C(=O)N[C@@H](Cc2ccccc2)C(N)=O)C(C)C)NC(=O)[C@H](Cc2c[nH]c4ccccc24)NC(=O)[C@H](CCCCN)NC(=O)[C@H](Cc2cnc[nH]2)NC(=O)[C@H](CCCNC(=N)N)NC(=O)[C@H](CCCNC(=N)N)NC(=O)[C@H](CO)NC3=O)NC(=O)[C@H](CCCCN)NC(=O)[C@H](CC(=O)O)NC(=O)[C@H](CC(N)=O)NC(=O)[C@H](CC(=O)O)NC(=O)[C@@H]2CCCN2C1=O` [[Arg26]GpTx-1(1-34)] (H-DCLGFMRKCIPDNDKCCRPNLVCSRRHKWCKYVF-NH2; disulfide 2-17, 9-23, 16-30), the IC50 at hNav1.5 was determined as 0.573 µM; at hNav1.3, 10 nM.
